Assay results as given in the supplement of paper PMC13380429.

Assays:
Settings in all cases: 72 h
Caco-2 [1] = assay: cell viability relative to DMSO; higher = less toxic
Calu-3 [2] = assay: as above
Vero E6 [3] = assay: as above
Caco-2 [4] = assay: relative viability EC50 (midpoint between 100% and the lowest measured viability); higher = less toxic
Calu-3 [5] = assay: as above
Vero E6 [6] = assay: as above
Caco-2 [7] = assay: drug sensitivity score (DSS) for viability; higher = more toxic; extreme values may be limits of the assay
Calu-3 [8] = assay: as above
Vero E6 [9] = assay: as above
HepG2 [10] = assay: cell viability relative to DMSO; higher = less toxic
U2OS [11] = assay: as above
HepG2 [12] = assay: relative viability EC50 (midpoint between 100% and the lowest measured viability); higher = less toxic
U2OS [13] = assay: as above
HepG2 [14] = assay: drug sensitivity score (DSS) for viability; higher = more toxic; extreme values may be limits of the assay
U2OS [15] = assay: as above

SMILES	cell viability (Caco-2 [1]; 1 nM) [%]	cell viability (Caco-2 [1]; 10 nM) [%]	cell viability (Caco-2 [1]; 100 nM) [%]	cell viability (Caco-2 [1]; 1000 nM) [%]	cell viability (Caco-2 [1]; 10000 nM) [%]	cell viability (Calu-3 [2]; 1 nM) [%]	cell viability (Calu-3 [2]; 10 nM) [%]	cell viability (Calu-3 [2]; 100 nM) [%]	cell viability (Calu-3 [2]; 1000 nM) [%]	cell viability (Calu-3 [2]; 10000 nM) [%]	cell viability (Vero E6 [3]; 1 nM) [%]	cell viability (Vero E6 [3]; 10 nM) [%]	cell viability (Vero E6 [3]; 100 nM) [%]	cell viability (Vero E6 [3]; 1000 nM) [%]	cell viability (Vero E6 [3]; 10000 nM) [%]	relative viability EC50 (Caco-2 [4]) [µM]	relative viability EC50 (Calu-3 [5]) [µM]	relative viability EC50 (Vero E6 [6]) [µM]	drug sensitivity score (Caco-2 [7])	drug sensitivity score (Calu-3 [8])	drug sensitivity score (Vero E6 [9])	cell viability (HepG2 [10]; 1 nM) [%]	cell viability (HepG2 [10]; 10 nM) [%]	cell viability (HepG2 [10]; 100 nM) [%]	cell viability (HepG2 [10]; 1000 nM) [%]	cell viability (HepG2 [10]; 10000 nM) [%]	cell viability (U2OS [11]; 1 nM) [%]	cell viability (U2OS [11]; 10 nM) [%]	cell viability (U2OS [11]; 100 nM) [%]	cell viability (U2OS [11]; 1000 nM) [%]	cell viability (U2OS [11]; 10000 nM) [%]	relative viability EC50 (HepG2 [12]) [µM]	relative viability EC50 (U2OS [13]) [µM]	drug sensitivity score (HepG2 [14])	drug sensitivity score (U2OS [15])
O=C(O)c1cc(-c2ccc(F)cc2F)ccc1O [diflunisal]	93.3	105	93.9	105	104	103	109	109	99.6	95.7	103	100	92.9	98.4	97.1	> 10	> 10	> 10	0	0	0														
CCOP(=S)(OCC)Oc1cc(C)nc(C(C)C)n1 [dimpylate]	102	95.4	103	93	93.2	106	100	99.3	97.7	96.3						> 10	> 10		0	0		92.9	104	106	101	96.8	104	102	102	97.9	99.2	> 10	> 10	0	0
Oc1ccc(C2CNCCc3c2cc(O)c(O)c3Cl)cc1 (stereo not given) [fenoldopam]	96	87	80.6	76.6	73.7	96.5	110	105	109	107	101	99.4	97.3	103	96.7		> 10	> 10	6.6	0	0	104	102	95.3	105	94.8	103	101	99.1	102	103	> 10	> 10	0	0
O=C1O[C@H](CO)[C@@H](O)[C@H](O)[C@H]1O [gluconolactone]	109	106	102	95.1	101	99.6	90.5	100	97.2	105						> 10	> 10		0	0		90.9	103	92.2	91.2	94.5	106	102	104	98.9	106	> 10	> 10	0	0
O=C(NCNC(=O)NC1C(=O)NC(=O)N1CO)NC1C(=O)NC(=O)N1CO (stereo not given) [imidurea]	90.7	95.4	98.7	98	103	94.4	98.1	104	103	95.6						> 10	> 10		0	0		104	97.3	89.8	98.1	82.9	103	97.3	102	98.3	102	> 10	> 10	0.3	0
O=C(Nc1ccncc1)C(=O)c1cn(Cc2ccc(Cl)cc2)c2ccccc12 [indibulin]	75	84	94.9	82.9	92.2	97.9	95	110	102	104	75.1	104	79.4	97.3	66.1	> 10	> 10		0	0	2	91.6	107	94.9	91.3	94.5	111	99	97.2	95.4	90.9	> 10	> 10	0	0
CCCCC(F)(F)[C@@]1(O)CC[C@H]2[C@@H](CC(=O)[C@@H]2CCCCCCC(=O)O)O1 [lubiprostone]	108	101	101	103	97.8	106	102	111	98.6	98.8						> 10	> 10		0	0							104	102	104	99.8	104		> 10		0
COC(=O)C1=C(C)NC(C)=C(C(=O)OCCN2CCN(C(c3ccccc3)c3ccccc3)CC2)C1c1cccc([N+](=O)[O-])c1 (stereo not given) [manidipine]	98.4	93.9	104	94.5	65.4	94.6	103	104	91.5	85.4	100	103	96.7	100	93.3		> 10	> 10	2.5	0.8	0	105	104	104	104	81.4	98.3	100	93.8	97.6	71.9	> 10		0.3	1.5
CC(=O)Oc1c(C)cc(OCC(O)CNC(C)C)c(C)c1C (stereo not given) [metipranolol]	73.8	84.6	102	98.7	70.3	94.6	89.8	97.7	96.1	92.9	103	107	94.6	85.8	97.5		> 10	> 10	1.3	0	1.6	101	102	105	84	93.3	99.1	97.3	96.2	93.9	93.8	> 10	> 10	1.5	0
NCc1c[nH]c(=S)n1[C@H]1CCc2c(F)cc(F)cc2C1 [nepicastat]						87.7	95.3	98.6	103	97.6	105	104	106	96.7	108		> 10	> 10		0	0	100	95.2	93.8	102	96.2	101	105	99	106	97.2	> 10	> 10	0	0
C[C@@]12C[C@@]3(O)O[C@@H](O1)[C@]1(COC(=O)c4ccccc4)[C@H]3C[C@@]12O[C@@H]1O[C@H](CO)[C@@H](O)[C@H](O)[C@H]1O [paeoniflorin]	103	101	96	93.5	96	91	98.6	107	87	98.7						> 10	> 10		0	0		100	100	102	107	95.9	101	99.8	104	102	101	> 10	> 10	0	0
CCCCCCCCCCCCCCCC(=O)OC(CC(=O)[O-])C[N+](C)(C)C (stereo not given) [palmitoylcarnitine]	110	102	102	92.5	93	98.3	94.3	100	97	84.2	96.2	104	104	99.6	73	> 10	> 10		0	0.6	1.1	99.3	96.8	107	95.8	94.9	103	104	99.9	100	102	> 10	> 10	0	0
CCCOC(=O)c1ccccc1 [propyl-benzoate]						98.5	90.6	98.2	99.1	102	94.3	94.6	91.8	90.3	101		> 10	> 10		0	0	98.7	98.2	94.7	93	94.4						> 10		0	
Cc1cc(/C=C/C#N)cc(C)c1Nc1ccnc(Nc2ccc(C#N)cc2)n1 [rilpivirine]	97.8	98	93.3	87.3	61.4	97	93.7	99.8	95.6	92.7	100	100	96.8	98.5	70.5		> 10		3.1	0	1.5	98.9	99.8	99.5	96.9	47.7	94.8	99.1	99.6	95.4	80.5	2.69	> 10	3.2	1.1
COc1ccc2c(O[C@@H]3C[C@H]4C(=O)N[C@]5(C(=O)NS(=O)(=O)C6CC6)C[C@H]5/C=C\CCCCN(C)C(=O)[C@@H]4C3)cc(-c3nc(C(C)C)cs3)nc2c1C [simeprevir]	94.8	100	112	102	70.8	94.9	99.7	88.7	100	102	102	105	95.4	101	102		> 10	> 10	1.1	0	0	102	99.4	92.7	101	81.5	104	98.8	99.9	99.4	105	> 10	> 10	0.4	0
COc1cc2c(N3CCN(C(=O)Nc4ccc(OC(C)C)cc4)CC3)ncnc2cc1OCCCN1CCCCC1 [tandutinib]	113	102	112	105	98.2	109	97	94.7	108	111						> 10	> 10		0	0		110	112	112	109	84.1						> 10		0.1	
